Values of other authors as cited in US20040028740A1, “Steroid hormones as transfer agents” (priority 2000, published 2004).

[1] = daily doses of 200 mg and 300 mg

effect on HDL-cholesterol levels [1]: does not affect
effect on liver enzymes (ASAT, ALAT, AFOS) [1]: does not affect
effect on sex-hormone binding-globulin (SHBG) synthesis [1]: does not affect
SMILES: CC(=O)[C@H]1CC[C@H]2[C@@H]3CCC4=CC(=O)CC[C@]4(C)[C@H]3CC[C@]12C [progesterone]
effect on carbohydrate metabolism (orally administered): adversely affects neither
effect on plasma lipids (orally administered): adversely affects neither
